Test results published in PubChem BioAssay AID192 (DTP/NCI, 2004).
Several values for one entry are separate records, joined by “and”; a condition that tells them apart may be missing. Equal values may be shown once. Toxic doses and inconclusive results are not listed.

Tested on: BDF1 mice, B16 melanoma ip, median survival T/C
Experiment: NCI In Vivo Anticancer Drug Screen. Data for tumor model B16 Melanoma (intraperitoneal) in B6D2F1 (BDF1) mice
Conditions: endpoint: median survival time, higher = longer survival
Outline: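 Tumor-bearing mice received test compound or vehicle. Survival or tumor size was then measured in both groups. The treated-group figure was divided by the control-group figure.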

[1] = dose: 50.0 mg/kg/injection, schedule: Q01DX009 (ip), vehicle: saline
[2] = dose: 100.0 mg/kg/injection, schedule: Q01DX009 (ip), vehicle: saline
[3] = dose: 200.0 mg/kg/injection, schedule: Q01DX009 (ip), vehicle: saline
[4] = dose: 100.0 mg/kg/injection, schedule: Q01DX009 (ip), vehicle: saline with Tween-80
[5] = dose: 100.0 mg/kg/injection, schedule: Q04DX003 (ip), vehicle: saline with Tween-80
[6] = dose: 12.5 mg/kg/injection, schedule: Q01DX009 (ip), vehicle: other
[7] = dose: 25.0 mg/kg/injection, schedule: Q01DX009 (ip), vehicle: other
[8] = dose: 200.0 mg/kg/injection, schedule: Q01DX009 (ip), vehicle: saline with Tween-80
[9] = dose: 400.0 mg/kg/injection, schedule: Q01DX009 (ip), vehicle: saline with Tween-80
[10] = dose: 50.0 mg/kg/injection, schedule: Q01DX009 (ip), vehicle: saline with Tween-80
[11] = dose: 100.0 mg/kg/injection, schedule: Q01DX009 (ip), vehicle: Klucel (hydroxypropylcellulose) (HPC)
[12] = dose: 200.0 mg/kg/injection, schedule: Q01DX009 (ip), vehicle: Klucel (hydroxypropylcellulose) (HPC)
[13] = dose: 400.0 mg/kg/injection, schedule: Q01DX009 (ip), vehicle: Klucel (hydroxypropylcellulose) (HPC)
[14] = dose: 25.0 mg/kg/injection, schedule: Q01DX009 (ip), vehicle: saline with Tween-80

O=C1C(Cl)=C(Nc2ccc(C(=O)Nc3ccc4cc(S(=O)(=O)O)cc(S(=O)(=O)O)c4c3)cc2)C(=O)C(Cl)=C1Nc1ccc(C(=O)Nc2ccc3cc(S(=O)(=O)O)cc(S(=O)(=O)O)c3c2)cc1
T/C [1]: 109 % of control
T/C [2]: 102 % of control
T/C [3]: 100 % of control

C(=C\c1cccnc1)/c1ccncc1
T/C (dose: 66.0 mg/kg/injection, schedule: Q01DX009 (ip), vehicle: saline with Tween-80): 96 % of control
T/C [4]: 93 % of control

O=C1C(=O)c2ccccc2C(O)=C1CCCc1ccc(OCc2ccccc2)cc1
T/C (dose: 5.0 mg/kg/injection, schedule: Q01DX009 (ip), vehicle: saline with Tween-80): 101 % of control
T/C (dose: 10.0 mg/kg/injection, schedule: Q01DX009 (ip), vehicle: saline with Tween-80): 100 % of control
T/C (dose: 20.0 mg/kg/injection, schedule: Q01DX009 (ip), vehicle: saline with Tween-80): 103 % of control

CCOC(=O)c1ccc(NC(=O)NC)cc1
T/C [5]: 93 % of control
T/C (dose: 200.0 mg/kg/injection, schedule: Q04DX003 (ip), vehicle: saline with Tween-80): 86 % of control
T/C (dose: 400.0 mg/kg/injection, schedule: Q04DX003 (ip), vehicle: saline with Tween-80): 86 % of control

NC(Cn1cc(N(CCCl)CCCl)c(=O)[nH]c1=O)C(=O)O (configuration not stated)
T/C (dose: 6.0 mg/kg/injection, schedule: Q01DX009 (ip), vehicle: saline): 104 % of control
T/C (dose: 12.0 mg/kg/injection, schedule: Q01DX009 (ip), vehicle: saline): 115 % of control

COc1cc(NS(C)(=O)=O)ccc1Nc1c2cccc(C)c2nc2c(C)cccc12
T/C (dose: 0.8 mg/kg/injection, schedule: Q01DX009 (ip), vehicle: other): 115 % of control
T/C (dose: 1.6 mg/kg/injection, schedule: Q01DX009 (ip), vehicle: other): 115 % of control
T/C (dose: 6.25 mg/kg/injection, schedule: Q01DX009 (ip), vehicle: saline sonified): 158 % of control
T/C [6]: 189 % of control
T/C (dose: 12.5 mg/kg/injection, schedule: Q01DX009 (ip), vehicle: saline sonified): 204 % of control
T/C [7]: 208 % of control
T/C (dose: 25.0 mg/kg/injection, schedule: Q01DX009 (ip), vehicle: saline sonified): 183 % of control
T/C (dose: 25.0 mg/kg/injection, schedule: Q04DX003 (ip), vehicle: other): 166 % of control
T/C (dose: 50.0 mg/kg/injection, schedule: Q01DX001 (ip), vehicle: saline sonified): 169 % of control
T/C (dose: 50.0 mg/kg/injection, schedule: Q04DX003 (ip), vehicle: other): 156 % of control
T/C (dose: 100.0 mg/kg/injection, schedule: Q01DX001 (ip), vehicle: saline sonified): 165 % of control
T/C (dose: 200.0 mg/kg/injection, schedule: Q01DX001 (ip), vehicle: saline sonified): 152 % of control

CC(=O)OC1CC(O)C23COC(O)C1(C)C2CC(O)C1(C)C3C(=O)C(O)C2(C)C(c3ccoc3)CC3OC321 (configuration not stated)
T/C (dose: 0.13 mg/kg/injection, schedule: Q01DX009 (ip), vehicle: saline + alcohol): 111 % of control
T/C (dose: 0.25 mg/kg/injection, schedule: Q01DX009 (ip), vehicle: saline + alcohol): 102 % of control
T/C (dose: 0.5 mg/kg/injection, schedule: Q01DX009 (ip), vehicle: saline + alcohol): 115 % of control
T/C (dose: 1.0 mg/kg/injection, schedule: Q01DX009 (ip), vehicle: saline + alcohol): 98 % of control

CCOC(=O)C(C=O)(NC(=O)c1ccccc1)OCC (configuration not stated)
T/C [4]: 102 % of control
T/C [8]: 97 % of control
T/C [9]: 100 % of control

Brc1ccc(C=C2c3ccccc3-c3ccccc32)cc1
T/C (dose: 100.0 mg/kg/injection, schedule: Q04DX003 (ip), vehicle: Klucel (hydroxypropylcellulose) (HPC)): 97 % of control
T/C (dose: 200.0 mg/kg/injection, schedule: Q04DX003 (ip), vehicle: Klucel (hydroxypropylcellulose) (HPC)): 105 % of control
T/C (dose: 400.0 mg/kg/injection, schedule: Q04DX003 (ip), vehicle: Klucel (hydroxypropylcellulose) (HPC)): 102 % of control

N=C(N)SCc1cccc2c(=O)cc(-c3ccccc3)oc12
T/C [1]: 101 % of control
T/C [2]: 111 % of control
T/C [3]: 86 % of control

CC(CCl)C(C#N)(c1ccccc1)c1ccccc1 (configuration not stated)
T/C [10]: 93 % of control
T/C [4]: 90 % of control
T/C [8]: 102 % of control

CC(C)[C@]12O[C@H]1[C@@H]1O[C@]13[C@]1(O[C@H]1C[C@H]1C4=C(C(=O)OC4)[C@@H](O)C[C@@]13C)[C@@H]2O
T/C (dose: 12.5 micrograms/kg/injection, schedule: Q01DX009 (ip), vehicle: saline + alcohol): 112 % of control
T/C (dose: 25.0 micrograms/kg/injection, schedule: Q01DX009 (ip), vehicle: saline + alcohol): 110 % of control
T/C (dose: 50.0 micrograms/kg/injection, schedule: Q01DX009 (ip), vehicle: saline + alcohol): 110 % of control
T/C (dose: 63.0 micrograms/kg/injection, schedule: Q01DX009 (ip), vehicle: saline + alcohol): 102 % of control
T/C (dose: 100.0 micrograms/kg/injection, schedule: Q01DX009 (ip), vehicle: saline + alcohol): 122 % of control
T/C (dose: 125.0 micrograms/kg/injection, schedule: Q01DX009 (ip), vehicle: saline + alcohol): 111 % of control
T/C (dose: 250.0 micrograms/kg/injection, schedule: Q01DX009 (ip), vehicle: saline + alcohol): 107 % of control

O=[N+]([O-])c1cccc(N=P(c2ccccc2)(c2ccccc2)c2ccccc2)c1
T/C [11]: 97 % of control
T/C [12]: 101 % of control
T/C [13]: 94 % of control

CCc1c(CC(=O)O)c2cc(C)ccc2n1Cc1ccc(Cl)cc1
T/C (dose: 3.12 mg/kg/injection, schedule: Q01DX009 (ip), vehicle: Klucel (hydroxypropylcellulose) (HPC)): 110 % of control and 119 % of control
T/C (dose: 6.25 mg/kg/injection, schedule: Q01DX009 (ip), vehicle: Klucel (hydroxypropylcellulose) (HPC)): 106 % of control and 114 % of control
T/C (dose: 12.5 mg/kg/injection, schedule: Q01DX009 (ip), vehicle: Klucel (hydroxypropylcellulose) (HPC)): 91 % of control and 111 % of control
T/C (dose: 25.0 mg/kg/injection, schedule: Q01DX009 (ip), vehicle: Klucel (hydroxypropylcellulose) (HPC)): 88 % of control and 106 % of control and 97 % of control
T/C [14]: 97 % of control
T/C (dose: 50.0 mg/kg/injection, schedule: Q01DX009 (ip), vehicle: Klucel (hydroxypropylcellulose) (HPC)): 101 % of control and 104 % of control and 105 % of control
T/C [10]: 97 % of control
T/C (dose: 50.0 mg/kg/injection, schedule: Q04DX003 (ip), vehicle: saline with Tween-80): 104 % of control
T/C [11]: 88 % of control and 95 % of control and 90 % of control
T/C [4]: 88 % of control
T/C [5]: 88 % of control

NCOC(=O)Cc1ccc(Br)cc1
T/C [11]: 97 % of control
T/C [12]: 97 % of control
T/C [13]: 89 % of control

C=C1C(=O)OCC2C(C(=O)O)=CC3C(C)C(C)=CC123 (configuration not stated)
T/C (dose: 2.5 mg/kg/injection, schedule: Q01DX009 (ip), vehicle: Klucel (hydroxypropylcellulose) (HPC)): 106 % of control
T/C (dose: 3.12 mg/kg/injection, schedule: Q01DX009 (ip), vehicle: other): 94 % of control
T/C (dose: 5.0 mg/kg/injection, schedule: Q01DX009 (ip), vehicle: Klucel (hydroxypropylcellulose) (HPC)): 98 % of control
T/C (dose: 6.25 mg/kg/injection, schedule: Q01DX009 (ip), vehicle: other): 101 % of control
T/C (dose: 10.0 mg/kg/injection, schedule: Q01DX009 (ip), vehicle: Klucel (hydroxypropylcellulose) (HPC)): 96 % of control
T/C [6]: 101 % of control
T/C (dose: 20.0 mg/kg/injection, schedule: Q01DX009 (ip), vehicle: Klucel (hydroxypropylcellulose) (HPC)): 98 % of control
T/C [7]: 111 % of control
T/C (dose: 40.0 mg/kg/injection, schedule: Q01DX009 (ip), vehicle: Klucel (hydroxypropylcellulose) (HPC)): 105 % of control

CCCCN=[N+]=[N-]
T/C (dose: 25.0 mg/kg/injection, schedule: Q01DX009 (ip), vehicle: water): 104 % of control
T/C (dose: 50.0 mg/kg/injection, schedule: Q01DX009 (ip), vehicle: water): 98 % of control
T/C (dose: 100.0 mg/kg/injection, schedule: Q01DX009 (ip), vehicle: water): 100 % of control
T/C (dose: 200.0 mg/kg/injection, schedule: Q01DX009 (ip), vehicle: water): 98 % of control

O=C(Nc1ccc(F)cc1)C(c1ccccc1)c1ccccc1
T/C (dose: 12.5 mg/kg/injection, schedule: Q01DX009 (ip), vehicle: saline with Tween-80): 98 % of control
T/C [14]: 92 % of control
T/C [10]: 89 % of control

O=[N+]([O-])c1ccc(/C=C/c2ccc([N+](=O)[O-])cc2S(=O)(=O)O)c(S(=O)(=O)O)c1
T/C [4]: 104 % of control
T/C [8]: 95 % of control
T/C [9]: 109 % of control

CN=C(N)NC
T/C [1]: 95 % of control
T/C [2]: 98 % of control
T/C [3]: 104 % of control
